# Laboratory results taken from US20060069132A1, “Azolecarboxamide herbicides” (priority 2004, published 2006).
# Assays:
# [1] = test system: ducksalad; experiment: Test B flooded paddy test; format: in vivo, Heteranthera limosa; conditions: 1000 g ai/ha, visual rating, scale 0 to 100 (0 no effect, 100 complete control), 13 to 15 days
# How it was run: (§1)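 Visual ratings, 0 (no effect) to 100 (complete control), made versus controls after 13–15 d greenhouse. Paddy plants treated at 2-leaf stage; postemergence plants at 1- to 4-leaf stage, 2–18 cm tall.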
# [2] = test system: blackgrass; experiment: Test B postemergence herbicide test; format: in vivo, Alopecurus myosuroides; conditions: scale 0 (no effect) to 100 (complete control); for Plant response rating, Blackgrass: Postemergence, 500 g ai/ha, visual rating after 13 to 15 days; for Blackgrass plant response rating: postemergence, 125 g ai/ha, visual rating
# How it was run: as §1
# [3] = test system: Surinam grass; experiment: Test B pre-/postemergence herbicide test; format: in vivo, Urochloa decumbens
# How it was run: (§2)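 Response was scored visually 13 to 15 days after treatment against untreated greenhouse controls, 0 meaning no effect and 100 complete control. Formulations (solvent mixture plus surfactant) went onto soil after planting, onto foliage of 1- to 4-leaf plants, and onto 2-leaf plants in a flooded paddy set including rice and barnyardgrass.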
# [4] = test system: pigweed; experiment: Test B pre-/postemergence herbicide test; format: in vivo, Amaranthus retroflexus
# How it was run: as §2
# [5] = test system: cocklebur; experiment: Test B pre-/postemergence herbicide test; format: in vivo, Xanthium strumarium
# How it was run: (§3)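 Visual rating, 0 (no effect) to 100 (complete control), versus untreated controls after 13–15 d in greenhouse. Pre- and postemergence applications (postemergence plants 2–18 cm, 1–4 leaves); flooded paddy arm at 2-leaf stage. Compounds in non-phytotoxic solvent plus surfactant.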
# [6] = test system: barnyardgrass; experiment: Test B flooded paddy test; format: in vivo, Echinochloa crus-galli; conditions: 1000 g ai/ha, visual rating, scale 0 to 100 (0 no effect, 100 complete control), 13 to 15 days
# How it was run: as §1
# [7] = test system: giant foxtail; experiment: Test B pre-/postemergence herbicide test; format: in vivo, Setaria faberi
# How it was run: as §2
# [8] = test system: corn; experiment: Test B pre-/postemergence herbicide test; format: in vivo, Zea mays
# How it was run: as §2
# [9] = test system: rice; experiment: Test B flooded paddy test; format: in vivo, Oryza sativa; conditions: 1000 g ai/ha, visual rating, scale 0 to 100 (0 no effect, 100 complete control), 13 to 15 days
# How it was run: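 Postemergence plants were sprayed with formulated test chemicals at 2 to 18 cm height (1- to 4-leaf stage); paddy species were grown to the 2-leaf stage. After 13 to 15 days in a greenhouse, injury was rated visually against untreated controls on a 0–100 scale (0 = no effect, 100 = complete control).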
# [10] = test system: small flower umbrella sedge; experiment: Test B flooded paddy test; format: in vivo, Cyperus difformis; conditions: 1000 g ai/ha, visual rating, scale 0 to 100 (0 no effect, 100 complete control), 13 to 15 days
# How it was run: as §1
# [11] = test system: wheat; experiment: Test B postemergence herbicide test; format: in vivo, Triticum aestivum; parameters: key to Wheat plant response rating: 0 = no effect, 100 = complete control; conditions: scale 0 (no effect) to 100 (complete control); for Plant response rating, Wheat: Postemergence, 500 g ai/ha, visual rating after 13 to 15 days; for Wheat plant response rating: postemergence, 125 g ai/ha, visual rating
# How it was run: (§4)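 Plants grow to 1- to 4-leaf stage (2–18 cm) for postemergence spraying, or to 2-leaf stage for the paddy test. Formulated compound is applied. Greenhouse holding lasts 13–15 days. Response is scored visually relative to controls, 0 no effect to 100 complete control; a dash means no result.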
# [12] = test system: large crabgrass; experiment: Test B pre-/postemergence herbicide test; format: in vivo, Digitaria sanguinalis
# How it was run: as §2
# [13] = test system: wild oat; experiment: Test B postemergence herbicide test; format: in vivo, Avena fatua; conditions: scale 0 (no effect) to 100 (complete control); for Plant response rating, Oat, Wild: Postemergence, 500 g ai/ha, visual rating after 13 to 15 days; for Oat, Wild plant response rating: postemergence, 125 g ai/ha, visual rating
# How it was run: as §4
# [14] = test system: velvetleaf; experiment: Test B pre-/postemergence herbicide test; format: in vivo, Abutilon theophrasti
# How it was run: as §2
# [15] = test system: barnyardgrass; experiment: Test B pre-/postemergence herbicide test; format: in vivo, Echinochloa crus-galli
# How it was run: as §3
# [16] = test system: morningglory; experiment: Test B pre-/postemergence herbicide test; format: in vivo, Ipomoea coccinea
# How it was run: as §3
# [17] = Postemergence, 500 g ai/ha, visual rating after 13 to 15 days, scale 0 (no effect) to 100 (complete control)
# [18] = Preemergence, 500 g ai/ha, scale 0 to 100
# [19] = postemergence, 125 g ai/ha, visual rating, scale 0 (no effect) to 100 (complete control)
# [20] = preemergence, 125 g ai/ha, 0 to 100 scale, 0 is no effect, 100 is complete control
structure (smiles),measurement,setting,value
CCNC(=O)c1cc(NC(=O)c2cc(C(C)(C)C)nn2CC)ccc1F [Compound 58],Ducksalad plant response rating,[1],80
same,"Plant response rating, Blackgrass",[2],30
same,Blackgrass plant response rating,[2],10
same,"Plant response rating, Surinam Grass",[3]; [17],30
same,Surinam Grass plant response rating,[3]; [18],60
same,Surinam Grass plant response rating,[3]; [19],10
same,"Plant response rating, Surinam Grass",[3]; [20],30
same,"Plant response rating, Pigweed",[4]; [17],90
same,Pigweed plant response rating,[4]; [18],100
same,Pigweed plant response rating,[4]; [19],60
same,"Plant response rating, Pigweed",[4]; [20],100
same,"Plant response rating, Cocklebur",[5]; [17],100
same,Cocklebur plant response rating,[5]; [18],100
same,Cocklebur plant response rating,[5]; [19],80
same,"Plant response rating, Cocklebur",[5]; [20],0
same,Barnyardgrass plant response rating,[6],80
same,"Plant response rating, Foxtail, Giant",[7]; [17],20
same,"Foxtail, Giant plant response rating",[7]; [18],100
same,"Foxtail, Giant plant response rating",[7]; [19],20
same,"Plant response rating, Foxtail, Giant",[7]; [20],100
same,"Plant response rating, Corn",[8]; [17],20
same,Corn plant response rating,[8]; [18],30
same,Corn plant response rating,[8]; [19],10
same,"Plant response rating, Corn",[8]; [20],20
same,Rice plant response rating,[9],60
same,"Sedge, Umbrella plant response rating",[10],80
same,"Plant response rating, Wheat",[11],20
same,Wheat plant response rating,[11],0
same,"Plant response rating, Crabgrass, Large",[12]; [17],30
same,"Crabgrass, Large plant response rating",[12]; [18],100
same,"Crabgrass, Large plant response rating",[12]; [19],20
same,"Plant response rating, Crabgrass, Large",[12]; [20],100
same,"Plant response rating, Oat, Wild",[13],30
same,"Oat, Wild plant response rating",[13],20
same,"Plant response rating, Velvetleaf",[14]; [17],70
same,Velvetleaf plant response rating,[14]; [18],100
same,Velvetleaf plant response rating,[14]; [19],50
same,"Plant response rating, Velvetleaf",[14]; [20],60
same,"Plant response rating, Barnyardgrass",[15]; [17],60
same,Barnyardgrass plant response rating,[15]; [18],100
same,Barnyardgrass plant response rating,[15]; [19],30
same,"Plant response rating, Barnyardgrass",[15]; [20],90
same,"Plant response rating, Morningglory",[16]; [17],30
same,Morningglory plant response rating,[16]; [18],30
same,Morningglory plant response rating,[16]; [19],20
CCn1nc(C(C)(C)C)cc1C(=O)Nc1cccc2c1CCN(C1CC1)C2=O [Compound 64],Ducksalad plant response rating,[1],90
same,"Plant response rating, Blackgrass",[2],10
same,Blackgrass plant response rating,[2],0
same,"Plant response rating, Surinam Grass",[3]; [17],10
same,Surinam Grass plant response rating,[3]; [19],10
same,"Plant response rating, Surinam Grass",[3]; [20],10
same,"Plant response rating, Pigweed",[4]; [17],50
same,Pigweed plant response rating,[4]; [19],20
same,"Plant response rating, Pigweed",[4]; [20],100
same,"Plant response rating, Cocklebur",[5]; [17],50
same,Cocklebur plant response rating,[5]; [18],0
same,Cocklebur plant response rating,[5]; [19],30
same,"Plant response rating, Cocklebur",[5]; [20],0
same,Barnyardgrass plant response rating,[6],30
same,"Plant response rating, Foxtail, Giant",[7]; [17],10
same,"Foxtail, Giant plant response rating",[7]; [18],100
same,"Foxtail, Giant plant response rating",[7]; [19],10
same,"Plant response rating, Foxtail, Giant",[7]; [20],10
same,"Plant response rating, Corn",[8]; [17],20
same,Corn plant response rating,[8]; [18],0
same,Corn plant response rating,[8]; [19],10
same,"Plant response rating, Corn",[8]; [20],0
same,Rice plant response rating,[9],50
same,"Sedge, Umbrella plant response rating",[10],90
same,"Plant response rating, Wheat",[11],10
same,Wheat plant response rating,[11],0
same,"Plant response rating, Crabgrass, Large",[12]; [17],10
same,"Crabgrass, Large plant response rating",[12]; [18],100
same,"Crabgrass, Large plant response rating",[12]; [19],10
same,"Plant response rating, Crabgrass, Large",[12]; [20],20
same,"Plant response rating, Oat, Wild",[13],20
same,"Oat, Wild plant response rating",[13],20
same,"Plant response rating, Velvetleaf",[14]; [17],10
same,Velvetleaf plant response rating,[14]; [19],10
same,"Plant response rating, Velvetleaf",[14]; [20],0
same,"Plant response rating, Barnyardgrass",[15]; [17],10
same,Barnyardgrass plant response rating,[15]; [18],90
same,Barnyardgrass plant response rating,[15]; [19],10
same,"Plant response rating, Barnyardgrass",[15]; [20],50
same,"Plant response rating, Morningglory",[16]; [17],20
same,Morningglory plant response rating,[16]; [19],0
same,"Plant response rating, Morningglory",[16]; [20],0
CCCN1CCc2c(NC(=O)c3cc(C(C)(C)C)nn3CC)cccc2C1=O [Compound 65],Ducksalad plant response rating,[1],90
same,"Plant response rating, Blackgrass",[2],10
same,Blackgrass plant response rating,[2],10
same,"Plant response rating, Surinam Grass",[3]; [17],20
same,Surinam Grass plant response rating,[3]; [19],20
same,"Plant response rating, Surinam Grass",[3]; [20],10
same,"Plant response rating, Pigweed",[4]; [17],60
same,Pigweed plant response rating,[4]; [19],40
same,"Plant response rating, Pigweed",[4]; [20],90
same,"Plant response rating, Cocklebur",[5]; [17],80
same,Cocklebur plant response rating,[5]; [18],0
same,Cocklebur plant response rating,[5]; [19],60
same,"Plant response rating, Cocklebur",[5]; [20],0
same,Barnyardgrass plant response rating,[6],80
same,"Plant response rating, Foxtail, Giant",[7]; [17],20
same,"Foxtail, Giant plant response rating",[7]; [18],80
same,"Foxtail, Giant plant response rating",[7]; [19],10
same,"Plant response rating, Foxtail, Giant",[7]; [20],20
same,"Plant response rating, Corn",[8]; [17],20
same,Corn plant response rating,[8]; [18],10
same,Corn plant response rating,[8]; [19],20
same,"Plant response rating, Corn",[8]; [20],0
same,Rice plant response rating,[9],50
same,"Sedge, Umbrella plant response rating",[10],90
same,"Plant response rating, Wheat",[11],10
same,Wheat plant response rating,[11],0
same,"Plant response rating, Crabgrass, Large",[12]; [17],20
same,"Crabgrass, Large plant response rating",[12]; [18],80
same,"Crabgrass, Large plant response rating",[12]; [19],10
same,"Plant response rating, Crabgrass, Large",[12]; [20],20
same,"Plant response rating, Oat, Wild",[13],20
same,"Oat, Wild plant response rating",[13],10
same,"Plant response rating, Velvetleaf",[14]; [17],10
same,Velvetleaf plant response rating,[14]; [19],10
same,"Plant response rating, Velvetleaf",[14]; [20],10
same,"Plant response rating, Barnyardgrass",[15]; [17],10
same,Barnyardgrass plant response rating,[15]; [18],90
same,Barnyardgrass plant response rating,[15]; [19],10
same,"Plant response rating, Barnyardgrass",[15]; [20],50
same,"Plant response rating, Morningglory",[16]; [17],20
same,Morningglory plant response rating,[16]; [19],10
same,"Plant response rating, Morningglory",[16]; [20],0
